Where a SMILES comes first, the peptide text is derived from it. Bridges are numbered along the chain shown (N, C = ends).
Test: Solubility of the ingredient in water (description)
Assay type: physicochemical
Conditions: white fluffy powder

- Solubility in water: easily soluble in water
Compound: CC(C)C[C@H](NC(=O)[C@H](CCCCN)NC(=O)CNC(=O)[C@H](CC(C)C)NC(=O)[C@@H](NC(=O)[C@@H]1CSSC[C@H](N)C(=O)N[C@@H](CO)C(=O)N[C@@H](CC(N)=O)C(=O)N[C@@H](CC(C)C)C(=O)N[C@@H](CO)C(=O)N[C@@H]([C@@H](C)O)C(=O)N1)C(C)C)C(=O)N[C@@H](CO)C(=O)N[C@@H](CCC(N)=O)C(=O)N[C@@H](CCC(=O)O)C(=O)N[C@@H](CC(C)C)C(=O)N[C@@H](Cc1c[nH]cn1)C(=O)N[C@@H](CCCCN)C(=O)N[C@@H](CC(C)C)C(=O)N[C@@H](CCC(N)=O)C(=O)N[C@H](C(=O)N[C@@H](Cc1ccc(O)cc1)C(=O)N1CCC[C@H]1C(=O)N[C@@H](CCCNC(=N)N)C(=O)N[C@H](C(=O)N[C@@H](CC(=O)O)C(=O)N[C@H](C(=O)NCC(=O)N[C@@H](C)C(=O)NCC(=O)N[C@H](C(=O)N1CCC[C@H]1C(N)=O)[C@@H](C)O)C(C)C)[C@@H](C)O)[C@@H](C)O [eel calcitonin, eel calcitonin (synthetic)] (H-CSNLSTCVLGKLSQELHKLQTYPRTDVGAGTP-NH2; disulfide 1-7)

— patent US5310727A, “Pharmaceutical compositions for parenteral use containing a calcitonin as the active ingredient” (Scalvo S.p.A., priority 1986, dated 1994)
